According to US9249125B2, “Pyrazole derivatives as p38 MAP inhibitors” (RESPIVERT LIMITED, priority 2012, dated 2016):

What was measured:
PBMC cells = experiment: Cell mitosis assay; type: cell-based, human
Description: Peripheral blood mononucleocytes (PBMCs) from healthy subjects are separated from whole blood (Quintiles, London, UK) using a density gradient (Histopaque-1077, Sigma-Aldrich, Poole, UK). The PBMCs (3 million cells per sample) are subsequently treated with 2% PHA (Sigma-Aldrich, Poole, UK) for 48 hr, followed by a 20 hr exposure to varying concentrations of test compounds. At 2 hr before collection, PBMCs are treated with demecolcine (0.1 μg/mL) (Invitrogen, Paisley, UK,) to arrest cells in metaphase. To observe mitotic cells, PBMCs are permeabilised and fixed by adding Intraprep (50 μL) (Beckman Coulter, France), and stained with anti-phospho-histone 3 (0.26 ng/L) (#9701; Cell Signalling, Danvers, Mass.) and propidium iodide (1 mg/mL) (Sigma-Aldrich, Poole, UK,) as previously described (Muehlbauer P. A. and Schuler M. J., Mutation Research, 2003, 537:117-130). Fluorescence is observed using an ATTUNE flow cytometer (Invitrogen, Paisley, UK), gating for lymphocytes.

GSK3α = GSK3α (Homo sapiens (Human), UniProt P49840); experiment: GSK 3α enzyme inhibition (FRET, Z-LYTE); type: biochemical
In short: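 GSK3α (500 ng/mL stock) was preincubated 2 hr at RT with compound (4 to 0.004 μg/mL stocks), then FRET peptide (8 μM stock) and ATP (40 μM stock) added for 1 hr. Protease development for 1 hr cleaved unphosphorylated peptide; coumarin/fluorescein emission ratio reported phosphorylation.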

[1] = test system: LPS-induced IL-8 release in d-U937 cells; experiment: LPS-induced IL-8 release in d-U937 cells; type: cell-based; settings: Homo sapiens, dU937, read-out: LPS Induced Release of Cytokine in d-937 Cells IL-8 IC50
In short: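 PMA-differentiated (100 ng/mL, 48–72 hr) U937 cells pre-incubated with compound 2 hr, then stimulated with LPS (0.1 μg/mL, E. coli O111:B4) for 4 hr. Supernatant TNFα and IL-8 measured by sandwich ELISA; inhibition versus vehicle control, REC50 from concentration-response curve.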

RSV A2 = experiment: RSV induced F-protein expression in primary bronchial epithelial cells; type: cell-based, respiratory syncytical virus; settings: for RSV induced F-protein in HBECs % Inhibition Observed: screened at concentrations up to 0.04 μg/mL; for IC50: human respiratory syncytial virus, Primary bronchial epithelial cell, read-out: RSV induced F-protein in HBECs IC50
Description: Normal human bronchial epithelial cells (NHBEC) grown in 96 well plates are infected with RSV A2 (Strain A2, HPA, Salisbury, UK) at an MOI of 0.001 in the LHC8 Media:RPMI-1640 (50:50) containing 15 mM magnesium chloride and incubated for 1 hr at 37° C. for adsorption. The cells are then washed with PBS (3×200 μL), fresh media (200 μL) is added and incubation continued for 4 days. Where appropriate, cells are pre-incubated with the compound or DMSO for 2 hr, and then added again after washout of the virus.
The cells are fixed with 4% formaldehyde in PBS solution (50 μL) for 20 min, washed with WB (3×200 μL), (washing buffer, PBS including 0.5% BSA and 0.05% Tween-20) and incubated with blocking solution (5% condensed milk in PBS) for 1 hr. Cells are then washed with WB (3×200 μL) and incubated for 1 hr at RT with anti-RSV (2F7) F-fusion protein antibody (40 μL) (mouse monoclonal, lot 798760, Cat. No. ab43812, Abcam) in 5% BSA in PBS-tween. After washing, cells are incubated with an HRP-conjugated secondary antibody solution (50 μL) in 5% BSA in PBS-Tween (lot 00053170, Cat. No. P0447, Dako) and then TMB substrate (50 μL) (substrate reagent pack, lot 269472, Cat. No. DY999, R&D Systems, Inc.) was added. This reaction is stopped by the addition of 2N H2SO4 (50 μL) and the resultant signal is determined colorimetrically (OD: 450 nm with a reference wavelength of 655 nm) in a microplate reader (Varioskan® Flash, ThermoFisher Scientific).
Cells are then washed and a 2.5% crystal violet solution (50 μL) (lot 8656, Cat. No. PL7000, Pro-Lab Diagnostics) is applied for 30 min. After washing with WB, 1% SDS in distilled water (100 μL) is added to each well, and plates are shaken lightly on the shaker for 1 hr prior to reading the absorbance at 595 nm. The measured OD450-655 readings are corrected to the cell number by dividing the OD450-655 by the OD595 readings. The percentage inhibition for each well is calculated and the IC50 value is calculated from the concentration-response curve generated from the serial dilutions of compound.

[2] = test system: LPS-induced airways neutrophilia in mice; experiment: LPS-induced neutrophil accumulation in mice; type: in vivo; settings: Test Substance at 0.2 mg/mL, intra tracheal, dosed 8 hr pre-LPS challenge
Description: Non-fasted Balb/c mice are dosed by the intra tracheal route with either vehicle, or the test substance at the indicated times (within the range 2-8 hr) before stimulation of the inflammatory response by application of an LPS challenge. At T=0, mice are placed into an exposure chamber and exposed to LPS (7.0 mL, 0.5 mg/mL solution in PBS) for 30 min). After a further 8 hr the animals are anesthetized, their tracheas cannulated and BALF extracted by infusing and then withdrawing from their lungs 1.0 mL of PBS via the tracheal catheter. Total and differential white cell counts in the BALF samples are measured using a Neubaur haemocytometer. Cytospin smears of the BALF samples are prepared by centrifugation at 200 rpm for 5 min at RT and stained using a DiffQuik stain system (Dade Behring). Cells are counted using oil immersion microscopy. Data for neutrophil numbers in BAL are shown as mean±S.E.M. (standard error of the mean). The percentage inhibition of neutrophil accumulation is calculated for each treatment relative to vehicle treatment.

GSK3α, sequence (P49840 whole entry): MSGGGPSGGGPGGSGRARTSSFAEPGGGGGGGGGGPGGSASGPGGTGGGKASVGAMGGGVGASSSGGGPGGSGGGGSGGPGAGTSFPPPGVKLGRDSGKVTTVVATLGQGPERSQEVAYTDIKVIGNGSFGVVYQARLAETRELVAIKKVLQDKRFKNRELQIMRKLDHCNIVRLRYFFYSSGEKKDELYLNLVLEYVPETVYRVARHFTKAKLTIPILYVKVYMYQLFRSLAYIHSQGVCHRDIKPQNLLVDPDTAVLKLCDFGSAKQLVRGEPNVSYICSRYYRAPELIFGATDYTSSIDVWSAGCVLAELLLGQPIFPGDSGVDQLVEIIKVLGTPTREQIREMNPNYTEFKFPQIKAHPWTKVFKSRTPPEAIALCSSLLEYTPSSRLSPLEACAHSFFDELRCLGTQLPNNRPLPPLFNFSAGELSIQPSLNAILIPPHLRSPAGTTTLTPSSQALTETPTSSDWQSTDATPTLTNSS

Row | SMILES | Mitosis Assay % inhibition in PBMC cells at 5 μg/mL (PBMC cells) [%] | IC50 (GSK3α) [nM] | IC50 [1] [nM] | RSV induced F-protein in HBECs % Inhibition Observed (RSV A2) [%] | % Inhibition of neutrophil accumulation in BAL [2] [%] | Neutrophil numbers in BAL (+/−SEM) [2] | IC50 (RSV A2) [nM]
1 | Cc1cc(Nc2nccc(Oc3ccc(NC(=O)Nc4cc(C(C)(C)C)nn4-c4ccc(=O)n(CCN5CCOCC5)c4)c4ccccc34)n2)cc2cn[nH]c12 [Example 89, 1-(3-(tert-butyl)-1-(1-(2-morpholinoethyl)-6-oxo-1,6-dihydropyridin-3-yl)-1H-pyrazol-5-yl)-3-(4-((2-((7-methyl-1H-indazol-5-yl)amino)pyrimidin-4-yl)oxy)naphthalen-1-yl)urea] | 26.7 | 2780 | 28.8 | – | – | – | –
2 | Cc1ccc(-n2nc(C(C)(C)C)cc2NC(=O)Nc2ccc(Oc3ccnc(Nc4cccc5cc[nH]c45)n3)c3ccccc23)cc1 [Example 17] | – | > 16100 | 7.4 | 65 | – | – | –
3 | Cc1ccc(-n2nc(C(C)(C)C)cc2NC(=O)Nc2ccc(Oc3ccnc(Nc4ccc5[nH]ncc5c4)n3)c3ccccc23)cc1 [Example 22, 1-(4-((2-((1H-indazol-5-yl)amino)pyrimidin-4-yl)oxy)naphthalen-1-yl)-3-(3-(tert-butyl)-1-(p-tolyl)-1H-pyrazol-5-yl)urea] | 52.7 | > 16000 | 1.5 | – | 57 | 7.0 ± 1.2 ×10^5/mL | 4.6
4 | Cc1ccc(-n2nc(C(C)(C)C)cc2NC(=O)Nc2ccc(Oc3ccnc(Nc4ccc5cn[nH]c5c4)n3)c3ccccc23)cc1 [Example 24, 1-(4-((2-((1H-indazol-6-yl)amino)pyrimidin-4-yl)oxy)naphthalen-1-yl)-3-(3-(tert-butyl)-1-(p-tolyl)-1H-pyrazol-5-yl)urea] | – | 2180 | 16.9 | 45 | – | – | –
5 | Cc1ccc(-n2nc(C(C)(C)C)cc2NC(=O)Nc2ccc(Oc3ccnc(Nc4ccc5c(ccn5C)c4)n3)c3ccccc23)cc1 [Example 18, 1-(3-(tert-butyl)-1-(p-tolyl)-1H-pyrazol-5-yl)-3-(4-((2-((1-methyl-1H-indol-5-yl)amino)pyrimidin-4-yl)oxy)naphthalen-1-yl)urea] | – | 7080 | 5.7 | 56 | – | – | –
6 | Cc1ccc(-n2nc(C(C)(C)C)cc2NC(=O)Nc2ccc(Oc3ccnc(Nc4ccc5scnc5c4)n3)c3ccccc23)cc1 [Example 34, 1-(4-((2-(benzo[d]thiazol-5-ylamino)pyrimidin-4-yl)oxy)naphthalen-1-yl)-3-(3-(tert-butyl)-1-(p-tolyl)-1H-pyrazol-5-yl)urea] | – | 1620 | 3.4 | 74 | – | – | –
7 | Cc1ccc(-n2nc(C(C)(C)C)cc2NC(=O)Nc2ccc(Oc3ccnc(Nc4ccc5ncn(C)c5c4)n3)c3ccccc23)cc1 [Example 31, 1-(3-(tert-butyl)-1-(p-tolyl)-1H-pyrazol-5-yl)-3-(4-((2-((1-methyl-1H-benzo[d]imidazol-6-yl)amino)pyrimidin-4-yl)oxy)naphthalen-1-yl)urea] | – | 1610 | 0.6 | 73 | – | – | –
8 | Cc1ccc(-n2nc(C(C)(C)C)cc2NC(=O)Nc2ccc(Oc3ccnc(Nc4ccc5ncsc5c4)n3)c3ccccc23)cc1 [Example 35, 1-(4-((2-(benzo[d]thiazol-6-ylamino)pyrimidin-4-yl)oxy)naphthalen-1-yl)-3-(3-(tert-butyl)-1-(p-tolyl)-1H-pyrazol-5-yl)urea] | – | > 15600 | 22.2 | 71 | – | – | –
9 | CC(C)(C)c1cc(NC(=O)Nc2ccc(Oc3ccnc(Nc4ccc5[nH]ncc5c4)n3)c3ccccc23)n(-c2ccc(OCCN3CCOCC3)cc2)n1 [Example 12, 1-(4-((2-((1H-Indazol-5-yl)amino)pyrimidin-4-yl)oxy)naphthalen-1-yl)-3-(3-(tert-butyl)-1-(4-(2-morpholinoethoxy)phenyl)-1H-pyrazol-5-yl)urea] | 58.6 | 3890 | 2 | – | 46 | 7.6 ± 1.5 ×10^5/mL | –
10 | Cc1ccc(-n2nc(C(C)(C)C)cc2NC(=O)Nc2ccc(Oc3ccnc(Nc4ccc5[nH]cnc5c4)n3)c3ccccc23)cc1 [Example 30, 1-(4-((2-((1H-benzo[d]imidazol-5-yl)amino)pyrimidin-4-yl)oxy)naphthalen-1-yl)-3-(3-(tert-butyl)-1-(p-tolyl)-1H-pyrazol-5-yl)urea] | – | 301 | 7.7 | 57 | – | – | –
11 | Cc1ccc(-n2nc(C(C)(C)C)cc2NC(=O)Nc2ccc(Oc3ccnc(Nc4ccc5c(c4)ncn5C)n3)c3ccccc23)cc1 [Example 4, 1-(3-(tert-Butyl)-1-(p-tolyl)-1H-pyrazol-5-yl)-3-(4-((2-((1-methyl-1H-benzo[d]imidazol-5-yl)amino)pyrimidin-4-yl)oxy)naphthalen-1-yl)urea] | – | 1370 | 2 | 96 | – | – | –
12 | COc1ccc(-n2nc(C(C)(C)C)cc2NC(=O)Nc2ccc(Oc3ccnc(Nc4ccc5[nH]ncc5c4)n3)c3ccccc23)cc1 [Example 40, 1-(4-((2-((1H-indazol-5-yl)amino)pyrimidin-4-yl)oxy)naphthalen-1-yl)-3-(3-(tert-butyl)-1-(4-methoxyphenyl)-1H-pyrazol-5-yl)urea] | 30.5 | > 15600 | 7.2 | – | – | – | 4.8
13 | Cc1cc(Nc2nccc(Oc3ccc(NC(=O)Nc4cc(C(C)(C)C)nn4-c4cccc(OCCN5CCOCC5)c4)c4ccccc34)n2)cc2cn[nH]c12 [Example 56, 1-(3-(tert-butyl)-1-(3-(2-morpholinoethoxy)phenyl)-1H-pyrazol-5-yl)-3-(4-((2-((7-methyl-1H-indazol-5-yl)amino)pyrimidin-4-yl)oxy)naphthalen-1-yl)urea] | – | > 13300 | 11 | – | 38 | 10.2 ± 1.9 ×10^5/mL | –
14 | Cc1ccc(-n2nc(C(C)(C)C)cc2NC(=O)Nc2ccc(Oc3cc(Nc4ccc5[nH]ncc5c4)ncn3)c3ccccc23)cc1 [Example 23, 1-(4-((6-((1H-indazol-5-yl)amino)pyrimidin-4-yl)oxy)naphthalen-1-yl)-3-(3-(tert-butyl)-1-(p-tolyl)-1H-pyrazol-5-yl)urea] | 70.7 | 12500 | 2.7 | – | – | – | –
